Source: patent US8569467B2, “C-glycoside compounds, and method for preparing C-glycoside compounds” (Ecole Nationale Supérieure de Chimie de Rennes, priority 2008, dated 2013)
“And” between values parts separate entries of the source, which are not always exact repeats. Equal entries are not always repeated.

Legend:
[1] = Tensiometric measurements of CMC/MAC and interface tension; format: physicochemical; details: tensiometric measurement
From the text: Tensiometric measurements, namely the measurement of the CMC (Critical Micelle Concentration) and the MAC (Minimal Aggregation Concentration) were made on various compounds obtained according to the invention.

[2] = Effect on the cloud temperature of the reference surfactant C6E2; format: physicochemical
Protocol: Finally, the effects of various C-glycoside compounds obtained according to the invention on the cloud temperature of a surfactant were tested in order to evaluate the advantage thereof for the stabilisation of the formulations.
The surfactant taken as a reference is C6E2, diethylene glycol monohexylether.

[3] = C6E2 (1% weight) + product (10% weight)
[4] = C6E2 (1% weight) + product (1% weight)

Structure (SMILES)	CMC*/MAC** (Critical Micelle Concentration / Minimum Aggregation Concentration) [1]	γCMC/MAC*** (interface tension at the CMC/MAC) [1]	Cloud temp [2, 3]	Cloud temp [2, 4]	Cloud temp ([2]; C6E2 (1% weight) alone, reference surfactant)
C=CCC(C)(O)C[C@@H]1OC(CO)[C@@H](O)C(O)C1O (single isomer, unassigned) [5-C(Glucosyl)-4-methylpent-1-ene-4-ol, 5-(C-Glucosyl)-4-methylpent-1-ene-4-ol]	350 mM	34 Mn · m^−1	44 °C	–	–
C=CCC(C)(O)C[C@@H]1OC(CO)[C@@H](O[C@@H]2OC(CO)[C@H](O)C(O)C2O)C(O)C1O (single isomer, unassigned) [5-C-(Lactosyl)-4-methylpent-1-ene-4-ol, 5-(C-Lactosyl)-4-methylpent-1-en-4-ol]	–	–	39 °C	–	–
CCCCCC(=O)CC1O[C@H](CO)[C@H](O)[C@H](O)[C@H]1O (stereo partly shown) [1-C-(Galactosyl)-heptan-2-one]	17.5 mM	30 Mn · m^−1	–	–	–
CCCCCC(=O)C[C@@H]1OC(CO)[C@@H](O)C(O)C1O (stereo partly shown) [1-C-(Glucosyl)-heptan-2-one, 1-(C-Glucosyl)-heptan-2-one]	–	30 Mn · m^−1 and 28 Mn · m^−1	–	62 °C	–
CCCCCC(=O)CC1O[C@H](CO)[C@@H](O[C@@H]2O[C@H](CO)[C@H](O)[C@H](O)[C@H]2O)[C@H](O)[C@H]1O (stereo partly shown) [1-C-(Lactosyl)-heptan-2-one]	17 mM	30 Mn · m^−1	–	58 °C	–
C=CCC(C)(O)CC1O[C@H](CO)[C@H](O)[C@H](O)[C@H]1O (stereo partly shown) [5-C-(Galactosyl)-4-methylpent-1-ene-4-ol]	–	–	42 °C	–	–
CCCCCCOCCOCCO [Example C6E2, diethylene glycol monohexylether, reference compound]	–	–	–	–	34 °C
